Experimental data from PubChem BioAssay (NCI).
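Where inhibition never reached the appropriate level, the endpoint shown equals the highest concentration tested. Otherwise, values were interpolated linearly from a five-concentration, 48-hour dose response in 96-well plates. GI50 = concentration required for 50% inhibition of growth. TGI marks complete inhibition of growth.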

Experiments:
Assay in all cases: growth of human tumour cells (NCI), 48 h
[1] = tested on: CAKI-1 renal
[2] = tested on: K-562 leukemia
[3] = tested on: SK-MEL-2 melanoma
[4] = tested on: HCC-2998 colon
[5] = tested on: MDA-MB-435
[6] = tested on: A498 renal
[7] = tested on: LOX IMVI melanoma
[8] = tested on: IGROV1 ovarian
[9] = tested on: RPMI-8226 leukemia
[10] = tested on: COLO 205 colon

SMILES	TGI [1] [µM]	TGI [2] [µM]	TGI [3] [µM]	TGI [4] [µM]	TGI [5] [µM]	TGI [6] [µM]	TGI [7] [µM]	TGI [8] [µM]	TGI [9] [µM]	TGI [10] [µM]	GI50 [4] [µM]	GI50 [1] [µM]	GI50 [9] [µM]	GI50 [3] [µM]	GI50 [10] [µM]	GI50 [5] [µM]	GI50 [6] [µM]	GI50 [7] [µM]
Nc1ccc(S(=O)(=O)c2ccc(NCN3C(=O)NC(=O)C(=O)C3=O)cc2)cc1	> 100	> 100	> 100	> 100	> 100	> 100	> 100	> 100	–	–	–	–	–	–	–	–	–	–
Cc1csc(NC23CC4CC(CC(C4)C2)C3)[n+]1C(P(=O)([O-])O)P(=O)(O)O (stereo unspecified)	> 100	> 100	–	> 100	> 100	> 100	> 100	> 100	> 100	> 100	–	–	–	–	–	–	–	–
CC(=C(c1ccccc1)c1ccccc1)N1C(=O)CC(=O)N1C	64.8	> 100	> 100	> 100	> 100	–	31.2	39	> 100	> 100	–	–	–	–	–	–	–	–
COc1cc2ccc(=O)oc2cc1O	401	562	577	305	–	208	> 625	423	438	> 625	56.4	–	–	–	–	–	–	–
O=c1cc(N2CCCC2)[nH]c(=O)n1Cc1ccccc1	> 100	> 100	> 100	> 100	> 100	–	> 100	> 100	> 100	> 100	–	–	–	–	–	–	–	–
CCOC(=O)CCC(NC(=O)OCc1ccccc1)C(=O)NC(CCC(=O)OCC)C(=O)NC(CCC(=O)OCC)C(=O)NC(CCC(=O)OCC)C(=O)NC(CCC(=O)OCC)C(=O)NC(CCC(=O)OCC)C(=O)NC(CCC(=O)OCC)C(=O)OCC (stereo unspecified)	> 100	> 100	> 100	53.8	> 100	> 100	> 100	–	> 100	–	–	–	–	–	–	–	–	–
CC(=O)N1CC(C)(C)c2c(C)c(O)c(C)c(C)c21	–	> 100	–	> 100	> 100	> 100	> 100	> 100	> 100	> 100	–	–	–	–	–	–	–	–
NCCCN(CCCN(C(=O)Nc1ccccc1)c1ccccc1)C(=O)Nc1ccccc1	–	> 100	55.6	62.3	–	> 100	56.6	> 100	73	> 100	–	–	–	–	–	–	–	–
Cc1ccc(OCC2OC(n3cnc4nc(N)nc(Cl)c43)CC2Oc2ccc(C)cc2)cc1 (stereo unspecified)	23.6	–	37.7	33.6	> 100	82.3	> 100	44.8	56.5	36.4	–	–	–	–	–	–	–	–
COc1c(O)c(C=O)c2c(O)c(-c3c(C)cc4c(C(C)C)c(OC)c(O)c(C=O)c4c3O)c(C)cc2c1C(C)C	16.9	> 100	11.1	5.34	–	24.7	–	18.5	22.4	4	–	–	–	–	–	–	–	–
COc1ccc(CC(N)c2ccc(OC)cc2)cc1 (stereo unspecified)	> 100	> 100	–	35	> 100	> 100	> 100	> 100	83	36.9	–	–	–	–	–	–	–	–
C=C/C(C)=C\CC1[C@](C)(O)CC[C@H]2C(C)(C)C(=O)CC[C@]12C (stereo partly specified)	> 100	> 100	> 100	–	> 100	> 100	> 100	> 100	> 100	> 100	–	–	–	–	–	–	–	–
CC1(C)N/C(=C\C=O)C(C)(C)N1O	> 100	> 100	> 100	> 100	> 100	–	> 100	> 100	> 100	> 100	–	–	–	–	–	–	–	–
CSCCC(N)C(=O)NCCNc1ccc(NCCNC(=O)C(N)CCSC)c2c1C(=O)c1ccccc1C2=O (stereo unspecified)	7.25	> 100	7.59	2.33	4.59	3.83	2.54	12.2	–	3.13	–	–	–	–	–	–	–	–
CCNCCCn1c2c(c3ccc(Cl)cc3c1=O)C(=O)c1cc(OC)cnc1-2	16.8	–	29.2	2.99	2.55	4.38	–	–	3.65	1.57	1.28	0.0472	1.25	12.5	0.146	1.15	0.358	–
O=C1C(Cl)=C(OCCCl)C(=O)c2c(O)ccc(O)c21	3.93	1.08	–	35.4	–	34.8	12.4	19.7	0.993	3.26	–	–	–	–	–	–	–	–
CC1(C)CC(O)C(C)(C)[C@@H](O)C1 (stereo partly specified)	> 100	> 100	> 100	> 100	–	–	> 100	> 100	–	> 100	–	–	–	–	–	–	–	–
CO/N=C1\CC(NC(=O)CNC(=O)OC(C)(C)C)c2ccsc21 (stereo unspecified)	> 100	–	> 100	> 100	> 100	> 100	> 100	> 100	–	> 100	–	–	–	–	–	–	–	–
CC(C)=NN/C(=N\S(=O)(=O)c1ccc(Oc2cccc(Cl)c2C#N)cc1)Nc1ccc(Cl)cc1	> 100	> 100	> 100	–	> 100	–	> 100	> 100	> 100	> 100	–	–	–	–	–	–	–	–
Cc1cc(C)nc(SC2=C(Nc3ccc(C)c(Cl)c3)C(=O)N(Cc3ccccc3)C2=O)n1	–	–	> 160	> 160	> 160	> 160	> 160	–	–	> 160	> 160	–	–	> 160	> 160	> 160	> 160	> 160
O=S(Nc1ccccc1)c1ccc(N2CCOCC2)cc1 (stereo unspecified)	–	> 100	> 100	> 100	> 100	–	> 100	> 100	> 100	> 100	–	–	–	–	–	–	–	–
COC(=O)C1CCC(=S)N1C(=O)c1ccccc1 (stereo unspecified)	> 100	> 100	> 100	> 100	> 100	> 100	–	> 100	> 100	> 100	–	–	–	–	–	–	–	–
